From the supplement of paper PMC10307832

Legend:
Assay in all cases: relative viability (nuclei count vs DMSO), 5 days (fraction); higher = more cells survive
A-427 = test system: A-427
How it was run: (§1)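 Relative viability is defined as nuclei in treated wells over nuclei in vehicle wells. Duplicate plates were run and medians reported. Lung cancer cell lines in 1536-well plates were dosed by pin tool one day after seeding, with one drug or with a fixed anchor-drug dose plus five library-drug doses (not always all listed) in √10 steps, and nuclei were counted after 5 days.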

COR-L 105 = test system: COR-L 105
How it was run: as §1

EPLC-272H = test system: EPLC-272H
How it was run: as §1

HCC-366 = test system: HCC-366
How it was run: as §1

HCC-78 = test system: HCC-78
How it was run: as §1

HOP-62 = test system: HOP-62
How it was run: as §1

LC-2-ad = test system: LC-2-ad
How it was run: as §1

LU99A = test system: LU99A
How it was run: as §1

LXF-289 = test system: LXF-289
How it was run: as §1

NCI-H1666 = test system: NCI-H1666
How it was run: as §1

NCI-H1793 = test system: NCI-H1793
How it was run: as §1

NCI-H1915 = test system: NCI-H1915
How it was run: as §1

NCI-H1944 = test system: NCI-H1944
How it was run: as §1

NCI-H2009 = test system: NCI-H2009
How it was run: as §1

NCI-H2085 = test system: NCI-H2085
How it was run: as §1

NCI-H2170 = test system: NCI-H2170
How it was run: as §1

NCI-H358 = test system: NCI-H358
How it was run: as §1

NCI-H460 = test system: NCI-H460
How it was run: as §1

SK-LU-1 = test system: SK-LU-1
How it was run: as §1

SW 900 = test system: SW 900
How it was run: as §1

UMC-11 = test system: UMC-11
How it was run: as §1

O=c1cc(-c2cccc3c2Sc2ccccc2S3)oc(N2CCOCC2)c1 + Cc1cc(Nc2cc(N3CCN(C)CC3)nc(Sc3ccc(NC(=O)C4CC4)cc3)n2)n[nH]1 [Tozasertib] (partner 0.1 µM)
relative viability (A-427; first compound 0.08 µM): 0.176
relative viability (A-427; first compound 0.253 µM): 0.179
relative viability (A-427; first compound 0.8 µM): 0.196
relative viability (A-427; first compound 8 µM): 0.204
relative viability (COR-L 105; first compound 0.08 µM): 0.319
relative viability (COR-L 105; first compound 0.253 µM): 0.357
relative viability (COR-L 105; first compound 0.8 µM): 0.32
relative viability (COR-L 105; first compound 2.53 µM): 0.363
relative viability (COR-L 105; first compound 8 µM): 0.414
relative viability (EPLC-272H; first compound 0.08 µM): 0.238
relative viability (EPLC-272H; first compound 0.253 µM): 0.193
relative viability (EPLC-272H; first compound 0.8 µM): 0.299
relative viability (EPLC-272H; first compound 2.53 µM): 0.237
relative viability (EPLC-272H; first compound 8 µM): 0.236
relative viability (HCC-366; first compound 0.08 µM): 0.144
relative viability (HCC-366; first compound 0.253 µM): 0.367
relative viability (HCC-366; first compound 0.8 µM): 0.093
relative viability (HCC-366; first compound 2.53 µM): 0.0682
relative viability (HCC-366; first compound 8 µM): 0.0642
relative viability (HCC-78; first compound 0.08 µM): 0.295
relative viability (HCC-78; first compound 0.253 µM): 0.457
relative viability (HCC-78; first compound 0.8 µM): 0.511
relative viability (HCC-78; first compound 2.53 µM): 0.384
relative viability (HCC-78; first compound 8 µM): 0.334
relative viability (HOP-62; first compound 0.08 µM): 0.452
relative viability (HOP-62; first compound 0.253 µM): 0.362
relative viability (HOP-62; first compound 0.8 µM): 0.426
relative viability (HOP-62; first compound 2.53 µM): 0.324
relative viability (HOP-62; first compound 8 µM): 0.397
relative viability (LC-2-ad; first compound 0.08 µM): 0.389
relative viability (LC-2-ad; first compound 0.253 µM): 0.405
relative viability (LC-2-ad; first compound 0.8 µM): 0.484
relative viability (LC-2-ad; first compound 2.53 µM): 0.411
relative viability (LC-2-ad; first compound 8 µM): 0.435
relative viability (LU99A; first compound 0.08 µM): 0.279
relative viability (LU99A; first compound 0.253 µM): 0.252
relative viability (LU99A; first compound 0.8 µM): 0.28
relative viability (LU99A; first compound 2.53 µM): 0.285
relative viability (LU99A; first compound 8 µM): 0.296
relative viability (LXF-289; first compound 0.08 µM): 0.186
relative viability (LXF-289; first compound 0.253 µM): 0.164
relative viability (LXF-289; first compound 0.8 µM): 0.223
relative viability (LXF-289; first compound 2.53 µM): 0.15
relative viability (LXF-289; first compound 8 µM): 0.17
relative viability (NCI-H1666; first compound 0.08 µM): 0.612
relative viability (NCI-H1666; first compound 0.253 µM): 0.603
relative viability (NCI-H1666; first compound 0.8 µM): 0.625
relative viability (NCI-H1666; first compound 2.53 µM): 0.539
relative viability (NCI-H1666; first compound 8 µM): 0.615
relative viability (NCI-H1793; first compound 0.08 µM): 0.362
relative viability (NCI-H1793; first compound 0.253 µM): 0.38
relative viability (NCI-H1793; first compound 0.8 µM): 0.325
relative viability (NCI-H1793; first compound 2.53 µM): 0.228
relative viability (NCI-H1793; first compound 8 µM): 0.245
relative viability (NCI-H1915; first compound 0.08 µM): 0.495
relative viability (NCI-H1915; first compound 0.253 µM): 0.446
relative viability (NCI-H1915; first compound 0.8 µM): 0.428
relative viability (NCI-H1915; first compound 2.53 µM): 0.401
relative viability (NCI-H1915; first compound 8 µM): 0.332
relative viability (NCI-H1944; first compound 0.08 µM): 0.252
relative viability (NCI-H1944; first compound 0.253 µM): 0.256
relative viability (NCI-H1944; first compound 0.8 µM): 0.23
relative viability (NCI-H1944; first compound 2.53 µM): 0.24
relative viability (NCI-H1944; first compound 8 µM): 0.232
relative viability (NCI-H2009; first compound 0.08 µM): 0.74
relative viability (NCI-H2009; first compound 0.253 µM): 0.725
relative viability (NCI-H2009; first compound 0.8 µM): 0.8
relative viability (NCI-H2009; first compound 2.53 µM): 0.737
relative viability (NCI-H2009; first compound 8 µM): 0.578
relative viability (NCI-H2085; first compound 0.08 µM): 0.778
relative viability (NCI-H2085; first compound 0.253 µM): 0.724
relative viability (NCI-H2085; first compound 0.8 µM): 0.768
relative viability (NCI-H2085; first compound 2.53 µM): 0.579
relative viability (NCI-H2085; first compound 8 µM): 0.551
relative viability (NCI-H2170; first compound 0.08 µM): 0.78
relative viability (NCI-H2170; first compound 0.253 µM): 0.739
relative viability (NCI-H2170; first compound 0.8 µM): 0.894
relative viability (NCI-H2170; first compound 2.53 µM): 0.715
relative viability (NCI-H2170; first compound 8 µM): 0.676
relative viability (NCI-H358; first compound 0.08 µM): 0.0969
relative viability (NCI-H358; first compound 0.253 µM): 0.101
relative viability (NCI-H358; first compound 0.8 µM): 0.12
relative viability (NCI-H358; first compound 2.53 µM): 0.0965
relative viability (NCI-H358; first compound 8 µM): 0.111
relative viability (NCI-H460; first compound 0.08 µM): 0.453
relative viability (NCI-H460; first compound 0.253 µM): 0.364
relative viability (NCI-H460; first compound 0.8 µM): 0.147
relative viability (NCI-H460; first compound 2.53 µM): 0.257
relative viability (NCI-H460; first compound 8 µM): 0.166
relative viability (SK-LU-1; first compound 0.08 µM): 0.309
relative viability (SK-LU-1; first compound 0.253 µM): 0.312
relative viability (SK-LU-1; first compound 0.8 µM): 0.313
relative viability (SK-LU-1; first compound 2.53 µM): 0.269
relative viability (SK-LU-1; first compound 8 µM): 0.322
relative viability (SW 900; first compound 0.08 µM): 0.754
relative viability (SW 900; first compound 0.253 µM): 0.543
relative viability (SW 900; first compound 0.8 µM): 0.433
relative viability (SW 900; first compound 2.53 µM): 0.486
relative viability (SW 900; first compound 8 µM): 0.5
relative viability (UMC-11; first compound 0.08 µM): 0.198
relative viability (UMC-11; first compound 0.253 µM): 0.19
relative viability (UMC-11; first compound 0.8 µM): 0.189
relative viability (UMC-11; first compound 2.53 µM): 0.202
relative viability (UMC-11; first compound 8 µM): 0.234
